Columns and labels:
Format in all cases: biochemical
CDK2/CyclinE = CDK2/CyclinE (Homo sapiens (Human), UniProt P24941); assay: CDK2/CyclinE kinase assay (Nanosyn, Caliper microfluidic); conditions: Table 2; for IC50: read-out: CDK2/CycE IC50
Method: (§1) Selected compounds disclosed herein were tested in CDK4/cyclinD1, CDK6/CycD3 CDK2/CycA and CDK2/cyclinE kinase assays by Nanosyn (Santa Clara, Calif.) to determine their inhibitory effect on these CDKs. The assays were performed using microfluidic kinase detection technology (Caliper Assay Platform). The compounds were tested in 12-point dose-response format in singlicate at Km for ATP. Phosphoacceptor substrate peptide concentration used was 1 μM for all assays and Staurosporine was used as the reference compound for all assays.

CDK4/CyclinD1 = CDK4/CyclinD1 (Homo sapiens (Human), UniProt P11802); assay: CDK4/CyclinD1 kinase assay (Nanosyn, Caliper microfluidic); conditions: Table 2; read-out: CDK4/CycD1 IC50
Sequence of CDK4/CyclinD1 (P11802 whole entry, species assumed): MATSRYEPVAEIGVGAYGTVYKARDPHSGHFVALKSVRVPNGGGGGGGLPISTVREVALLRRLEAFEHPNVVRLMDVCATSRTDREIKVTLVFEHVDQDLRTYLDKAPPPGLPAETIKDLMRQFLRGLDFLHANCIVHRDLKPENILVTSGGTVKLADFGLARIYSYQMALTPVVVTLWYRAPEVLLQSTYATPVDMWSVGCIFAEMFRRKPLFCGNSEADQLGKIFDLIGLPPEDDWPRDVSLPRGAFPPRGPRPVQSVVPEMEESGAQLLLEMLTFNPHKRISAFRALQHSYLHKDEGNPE
Sequence of CDK4/CyclinD1 (P24385 whole entry partner, species assumed): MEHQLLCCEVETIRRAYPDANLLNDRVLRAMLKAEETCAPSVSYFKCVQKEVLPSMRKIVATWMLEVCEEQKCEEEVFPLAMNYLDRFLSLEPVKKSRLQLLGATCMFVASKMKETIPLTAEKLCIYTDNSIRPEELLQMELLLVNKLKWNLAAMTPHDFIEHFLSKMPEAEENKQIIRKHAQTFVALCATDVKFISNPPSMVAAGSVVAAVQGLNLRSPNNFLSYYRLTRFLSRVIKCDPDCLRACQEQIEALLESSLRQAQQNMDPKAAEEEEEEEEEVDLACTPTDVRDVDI
Method: as §1, with “assays. Specifics of each assay are as described below:” for “assays.”
CDK4/CyclinD1: Enzyme concentration: 1 nM; ATP concentration: 200 μM; Incubation time: 10 hr.

CDK2/CyclinA = CDK2/CyclinA (Homo sapiens (Human), UniProt P24941); assay: CDK2/CyclinA kinase assay (Nanosyn, Caliper microfluidic); conditions: Table 2; for IC50: read-out: CDK2/CycA IC50
Method: as §1, with “assays. Specifics of each assay are as described below:” for “assays.”
CDK2/CyclinA: Enzyme concentration: 0.2 nM; ATP concentration: 50 μM; Incubation time: 3 hr.

Structure (SMILES) | Fold Selectivity (CDK2/CycE/CDK4) (CDK2/CyclinE) | IC50 (CDK2/CyclinE) [µM] | IC50 (CDK4/CyclinD1) [µM] | Fold Selectivity (CDK2/CycA/CDK4) (CDK2/CyclinA) | IC50 (CDK2/CyclinA) [µM]
CC(C)N1CCN(c2ccc(Nc3ncc4cc5n(c4n3)C3(CCCCC3)CNC5=O)nc2)C[C@@H]1C [AA] | 13319 | 6.1 | 0.0005 | 10109 | 4.63
C[C@H](O)CN1CCN(c2ccc(Nc3ncc4cc5n(c4n3)C3(CCCCC3)CNC5=O)nc2)CC1 [A] | 1516 | 6.35 | 0.0042 | 754 | 3.16
CC1(C)CN(c2ccc(Nc3ncc4cc5n(c4n3)C3(CCCCC3)CNC5=O)nc2)CCN1C1CC1 [BB] | 2017 | 1.68 | 0.0008 | 603 | 0.502
C[C@H]1CN(c2ccc(Nc3ncc4cc5n(c4n3)C3(CCCCC3)CNC5=O)nc2)CCN1CC1CC1 [B] | 6862 | 3.04 | 0.0004 | 4266 | 1.89
CC(C)(C)CCN1CCN(c2ccc(Nc3ncc4cc5n(c4n3)C3(CCCC3)CNC5=O)nc2)CC1(C)C [CCC] | 1074 | 2.17 | 0.002 | 226 | 0.457
CCN(CC)C1CCN(c2ccc(Nc3ncc4cc5n(c4n3)C3(CCCCC3)CNC5=O)nc2)CC1 [CC] | 791 | 1.25 | 0.0016 | 478 | 0.755
C[C@H](O)CN1CCN(c2ccc(Nc3ncc4cc5n(c4n3)C3(CCCCC3)CNC5=O)nc2)C[C@@H]1C [C] | 1333 | 1.92 | 0.0014 | 428 | 0.616
C[C@@H]1CN(c2ccc(Nc3ncc4cc5n(c4n3)C3(CCCC3)CNC5=O)nc2)C[C@H](C)N1 [DDD] | 986 | 9.35 | 0.0095 | – | –
C[C@@H]1CN(c2ccc(Nc3ncc4cc5n(c4n3)C3(CCCCC3)CNC5=O)nc2)C[C@H](C)N1C [DD] | 5200 | 9.62 | 0.0019 | 4519 | 8.36
CN1CCN(c2ccc(Nc3ncc4cc5n(c4n3)C3(CCCCC3)CNC5=O)nc2)CC1(C)C [D] | 3779 | 3.48 | 0.0009 | 1629 | 1.5
CC(C)(O)CN1CCN(c2ccc(Nc3ncc4cc5n(c4n3)C3(CCCC3)CNC5=O)nc2)CC1 [EEE] | 1266 | 2.95 | 0.0023 | 405 | 0.943
CC(C)N1CCN(Cc2ccc(Nc3ncc4cc5n(c4n3)C3(CCCCC3)CNC5=O)nc2)CC1 [EE] | 432 | 1.66 | 0.0038 | 289 | 1.11
CC(C)C1CN(c2ccc(Nc3ncc4cc5n(c4n3)C3(CCCCC3)CNC5=O)nc2)CCN1 (centres unmarked) [E] | 688 | 0.695 | 0.001 | 202 | 0.204
CCN1[C@H](C)CN(c2ccc(Nc3ncc4cc5n(c4n3)C3(CCCCC3)CNC5=O)nc2)C[C@@H]1C [FF] | 3949 | 4.62 | 0.0012 | 1197 | 1.4
O=C1NCC2(CCCCC2)n2c1cc1cnc(Nc3ccc(N4CCN(C5CCC5)CC4)cn3)nc12 [F] | 419 | 0.628 | 0.0015 | 127 | 0.19
CC(C)N1CCN(c2ccc(Nc3ncc4cc5n(c4n3)C3(CCCC3)CNC5=O)nc2)CC1C (centres unmarked) [GGG] | 555 | 7.61 | 0.0137 | – | –
CC1CN(c2ccc(Nc3ncc4cc5n(c4n3)C3(CCCCC3)CNC5=O)nc2)CCN1CCC(C)(C)C (centres unmarked) [G] | 1767 | 2.58 | 0.0015 | 442 | 0.646
O=C1NCC2(CCCC2)n2c1cc1cnc(Nc3ccc(N4CCC(N5CCCCC5)CC4)cn3)nc12 [HHH] | 419 | 2.84 | 0.0068 | – | –
O=C1NCC2(CCCCC2)n2c1cc1cnc(Nc3ccc(N4CCN(CC5CC5)CC4)cn3)nc12 [HH] | 766 | 1.28 | 0.0017 | 159 | 0.265
CC1(C)CN(c2ccc(Nc3ncc4cc5n(c4n3)C3(CCCCC3)CNC5=O)nc2)CCN1CC1CC1 [H] | 1013 | 1.52 | 0.0015 | 251 | 0.377

Structure (SMILES) | Fold Selectivity (CDK2/CycE/CDK4) (CDK2/CyclinE) | IC50 (CDK2/CyclinE) [µM] | IC50 (CDK4/CyclinD1) [µM] | Fold Selectivity (CDK2/CycA/CDK4) (CDK2/CyclinA) | IC50 (CDK2/CyclinA) [µM]
CC(C)N1CCN(c2ccc(Nc3ncc4cc5n(c4n3)C3(CCCC3)CNC5=O)nc2)CC1 [III] | 626 | 3.77 | 0.006 | – | –
CC(C)N1CCN(C(=O)c2ccc(Nc3ncc4cc5n(c4n3)C3(CCCCC3)CNC5=O)nc2)CC1 [II] | 184 | 0.367 | 0.002 | 120 | 0.239
CC1(C)CN(c2ccc(Nc3ncc4cc5n(c4n3)C3(CCCCC3)CNC5=O)nc2)CCN1 [I] | 1065 | 2.12 | 0.002 | 568 | 1.13
CCC(C)CN1[C@H](C)CN(c2ccc(Nc3ncc4cc5n(c4n3)C3(CCCC3)CNC5=O)nc2)C[C@@H]1C (some centres unmarked) [JJJ] | 1620 | 5.2 | 0.0032 | 882 | 2.83
CCN(CC)C1CCN(C(=O)c2ccc(Nc3ncc4cc5n(c4n3)C3(CCCCC3)CNC5=O)nc2)C1 (centres unmarked) [JJ] | 204 | 0.288 | 0.0014 | – | –
C[C@@H]1CN(c2ccc(Nc3ncc4cc5n(c4n3)C3(CCCCC3)CNC5=O)nc2)CCN1C[C@@H](C)O [J] | 7707 | 5.11 | 0.0007 | 6546 | 4.34
CC(C)(C)CCN1CCN(c2ccc(Nc3ncc4cc5n(c4n3)C3(CCCC3)CNC5=O)nc2)CC1 [KKK] | 231 | 0.291 | 0.0013 | 69 | 0.0873
C[C@H]1CN(c2ccc(Nc3ncc4cc5n(c4n3)C3(CCCCC3)CNC5=O)nc2)CCN1 [KK] | 762 | 1.76 | 0.0023 | 396 | 0.915
CC1CCN(C2CCN(c3ccc(Nc4ncc5cc6n(c5n4)C4(CCCCC4)CNC6=O)nc3)CC2)C1 (centres unmarked) [K] | 1019 | 1.07 | 0.001 | 703 | 0.738
O=C1NCC2(CCCCC2)n2c1cc1cnc(Nc3ccc(N4CCC(N5CCCCC5)CC4)cn3)nc12 [N] | 1500 | 1.5 | 0.001 | – | –
CN(C)C1CCN(c2ccc(Nc3ncc4cc5n(c4n3)C3(CCCCC3)CNC5=O)nc2)CC1 [O] | – | – | – | 1245 | 3.15
O=C1NCC2(CCCC2)n2c1cc1cnc(Nc3ccc(N4CCNCC4)cn3)nc12 [QQQ] | 1057 | 11.1 | 0.0105 | – | –
CC(C)N1CCN(c2ccc(Nc3ncc4cc5n(c4n3)C3(CCCC3)CNC5=O)nn2)CC1 [RRR] | 1758 | 4.5 | 0.0026 | – | –
CN(C)C1CCN(c2ccc(Nc3ncc4cc5n(c4n3)C3(CCCC3)CNC5=O)nn2)CC1 [TTT] | 899 | 3.03 | 0.0034 | – | –
CC(C)[C@H]1CNC(=O)c2cc3cnc(Nc4ccc(N5CCNCC5)cn4)nc3n21 [UUU] | 914 | 16.5 | 0.018 | – | –
CCN(CC)C1CCN(c2ccc(Nc3ncc4cc5n(c4n3)C3(CCCC3)CNC5=O)nc2)C1 (centres unmarked) [UU] | 542 | 3.96 | 0.0073 | – | –
CC(C)C[C@@H]1CNC(=O)c2cc3cnc(Nc4ccc(N5CCNCC5)cn4)nc3n21 [WWW] | 135 | 2.5 | 0.0185 | – | –
CC(C)C[C@@H]1CNC(=O)c2cc3cnc(Nc4ccc(N5CCN(C)CC5)cn4)nc3n21 [XXX] | 581 | 6.62 | 0.0114 | – | –
CN(C)C1CCN(c2ccc(Nc3ncc4cc5n(c4n3)C3(CCCC3)CNC5=O)nc2)CC1 [YY] | 1490 | 6.9 | 0.0046 | – | –
CN1CCN(c2ccc(Nc3ncc4cc5n(c4n3)C3(CCCC3)CNC5=O)nc2)CC1 [ZZ] | 949 | 9.96 | 0.0105 | – | –
